The target of this assay is T1, angiotensin-induced vasoconstriction (rabbit aorta) (Oryctolagus cuniculus, UniProt P34976).
T1 construct: The thoracic aortas were removed and cleaned of excess fat and connective tissue; from tissue; host or cells: thoracic aorta rings of New Zealand white rabbits (animals from Hazelton)
T1 sequence (P34976 1-359): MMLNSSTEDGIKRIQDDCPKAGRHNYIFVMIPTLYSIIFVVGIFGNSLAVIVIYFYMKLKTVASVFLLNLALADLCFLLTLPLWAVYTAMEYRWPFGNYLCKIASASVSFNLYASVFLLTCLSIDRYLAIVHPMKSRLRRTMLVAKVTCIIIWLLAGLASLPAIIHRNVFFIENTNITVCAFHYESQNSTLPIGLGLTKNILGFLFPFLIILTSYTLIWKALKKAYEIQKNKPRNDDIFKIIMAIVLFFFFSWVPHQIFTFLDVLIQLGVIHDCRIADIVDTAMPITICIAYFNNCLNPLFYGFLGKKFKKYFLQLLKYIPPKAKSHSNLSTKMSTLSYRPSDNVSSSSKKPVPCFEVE
Description: Rabbit Aorta Test System: antagonism of angiotensin II contraction of aortic rings. Details: species or system New Zealand white rabbits. The note with it: contraction to AII 10^-10 to 10^-7 M, 30 minutes incubation with compound; pA2 = -log KB. The protocol:
As previously discussed, the compounds of Formula I are potent effective antagonists of angiotensin II. The ability of representative compounds of Formula I to block angiotensin II receptor binding was determined using the adrenal glomerulosa assay. The ability to antagonize angiotensin-induced vasoconstriction was evaluated in the rabbit aorta test system.
New Zealand white rabbits (Hazelton, 2-3 kg) were sacrificed by cervical dislocation. The thoracic aortas were removed and cleaned of excess fat and connective tissue. Rings of tissue (3 mm wide) were mounted in 10 ml tissue baths between 2 L-shaped stainless steel hooks. The lower hook was attached to a stationary rod. The upper hook was attached to a force displacement transducer (Grass model FT.03). The bath chambers were maintained at 37° C., aerated with 95% 02 /5% C02, and contained physiological solution of the following composition (mM): NaCl, 117; glucose, 5.6; NaH2 PO4, 1.0; MgS04, 0.7; KCl, 5.2; CaCl2, 1.8; NaHCO3, 26; and phentolamine HCl, 0.003.
Rings were equilibrated for 1 hour with 2 g of tension. During the equilibration period, the tissues were washed by overflow every 15 minutes. Rings were then exposed to 10^-8 M angiotensin II (AII) and were allowed to contract until a steady state was reached. Tissues were then washed every 15 minutes for 1 hour. This was repeated every hour until the AII response stabilized. A cumulative concentration response curve to AII (10^-10 to 10^-7 M) was then obtained. At the conclusion of the concentration response curve, tissues were washed every 2 minutes until baseline tension was reached, then every 15 minutes for 30 minutes. Compounds were added in a volume of 10 μl DMSO and allowed to incubate for 30 minutes before repeating the concentration response curve to AII. Contractions to AII were expressed as a percent of the maximum contraction obtained in the control curve (the first AII concentration response curve). EC50 's (concentration that contracted the tissues to 1/2 the control maximum) for each curve were calculated using a 4 parameter logistics model (NonLin, SAS Institute). Potency data for each compound tested are expressed as the pA2 (defined as-log KB, where KB =[molar concentration of antagonist]/[(EC50 AII with antagonist/EC50 AII without antagonist)-1]).

On to `CCCCCC[C@H](C(=O)N1C[C@@H](Oc2ccc(OCC)cc2)C[C@H]1C(=O)O)n1cnc(NC(=O)c2ccccc2S(=O)(=O)O)c1` [Example 48], for which the Kb is 0.631 nM.

With `CCCCCC[C@H](C(=O)N1C[C@@H](Oc2ccc(OC(C)C)cc2)C[C@H]1C(=O)O)n1cnc(NC(=O)c2ccccc2S(=O)(=O)O)c1` [Example 49], the Kb was 2.51 nM.

As for `CCCCCC[C@H](C(=O)N1C[C@@H](Oc2ccc(OCCCC)cc2)C[C@H]1C(=O)O)n1cnc(NC(=O)c2ccccc2S(=O)(=O)O)c1` [Example 50], the Kb is 2 nM.

For the compound `CCCCCC[C@H](C(=O)N1C[C@@H](Oc2ccc(OCC(C)C)cc2)C[C@H]1C(=O)O)n1cnc(NC(=O)c2ccccc2S(=O)(=O)O)c1` [Example 51], the antagonist dissociation constant (Kb) is 12.6 nM.

Regarding `CCCCCC[C@H](C(=O)N1C[C@@H](Oc2ccc(OC(C)(C)C)cc2)C[C@H]1C(=O)O)n1cnc(NC(=O)c2ccccc2S(=O)(=O)O)c1` [Example 52], the antagonist dissociation constant (Kb) was 3.98 nM.

For the compound `CCCCCC[C@H](C(=O)N1C[C@@H](Oc2ccc(OC(F)(F)F)cc2)C[C@H]1C(=O)O)n1cnc(NC(=O)c2ccccc2S(=O)(=O)O)c1` [Example 53], the Kb is 10 nM.

Turning to `CCCCCC[C@H](C(=O)N1C[C@@H](Oc2ccc(OC3CCCC3)cc2)C[C@H]1C(=O)O)n1cnc(NC(=O)c2ccccc2S(=O)(=O)O)c1` [Example 54], the antagonist equilibrium constant (Kb) was 2.51 nM.

As to `CCCCCC[C@H](C(=O)N1C[C@@H](Oc2ccc(OCC3CC3)cc2)C[C@H]1C(=O)O)n1cnc(NC(=O)c2ccccc2S(=O)(=O)O)c1` [Example 55], the Kb was 0.398 nM.

For `CCCCCC[C@H](C(=O)N1C[C@@H](Oc2ccc(OCC3CCCCC3)cc2)C[C@H]1C(=O)O)n1cnc(NC(=O)c2ccccc2S(=O)(=O)O)c1` [Example 56], the Kb was 31.6 nM.

With `CCCCCC[C@H](C(=O)N1C[C@@H](Oc2ccc(OCC(=O)O)cc2)C[C@H]1C(=O)O)n1cnc(NC(=O)c2ccccc2S(=O)(=O)O)c1` [Example 57], the Kb is 0.316 nM.

Turning to `CCCCCC[C@H](C(=O)N1C[C@@H](Oc2ccc(OC(C)(C)C(=O)O)cc2)C[C@H]1C(=O)O)n1cnc(NC(=O)c2ccccc2S(=O)(=O)O)c1` [Example 58], the Kb was 0.794 nM.

Turning to `CCCCCC[C@H](C(=O)N1C[C@@H](Oc2ccc3c(c2)OCO3)C[C@H]1C(=O)O)n1cnc(NC(=O)c2ccccc2S(=O)(=O)O)c1` [Example 59], the antagonist equilibrium constant (Kb) was 0.631 nM.

In the case of `CCCCCC[C@H](C(=O)N1C[C@@H](Oc2ccc(OC)c(OC)c2)C[C@H]1C(=O)O)n1cnc(NC(=O)c2ccccc2S(=O)(=O)O)c1` [Example 60], the Kb was 15.8 nM.

On to `CCCCCC[C@H](C(=O)N1C[C@@H](Oc2ccc3ccccc3c2)C[C@H]1C(=O)O)n1cnc(NC(=O)c2ccccc2S(=O)(=O)O)c1` [Example 61], for which the antagonist equilibrium constant (Kb) is 3.16 nM.

For `CCCCCC[C@H](C(=O)N1C[C@@H](Oc2ccc3ccc(OC)cc3c2)C[C@H]1C(=O)O)n1cnc(NC(=O)c2ccccc2S(=O)(=O)O)c1` [Example 62], the Kb is 1 nM.

Turning to `CCCCCC[C@H](C(=O)N1C[C@@H](Oc2ccc3ccc(C(=O)O)cc3c2)C[C@H]1C(=O)O)n1cnc(NC(=O)c2ccccc2S(=O)(=O)O)c1` [Example 63], the antagonist equilibrium constant (Kb) is 1.58 nM.

`CCCCCC[C@H](C(=O)N1C[C@@H](Oc2cccc3ccccc23)C[C@H]1C(=O)O)n1cnc(NC(=O)c2ccccc2S(=O)(=O)O)c1` [Example 64]: the antagonist equilibrium constant (Kb) is 2000 nM.

Take `CCCCCC[C@H](C(=O)N1C[C@@H](Oc2ccc3oc(C)cc3c2)C[C@H]1C(=O)O)n1cnc(NC(=O)c2ccccc2S(=O)(=O)O)c1` [Example 69]: the Kb was 0.501 nM.

As for `CCCCCC[C@H](C(=O)N1C[C@@H](Oc2ccc3oc(C(=O)O)cc3c2)C[C@H]1C(=O)O)n1cnc(NC(=O)c2ccccc2S(=O)(=O)O)c1` [Example 70], the Kb is 0.501 nM.

Turning to `CCCCCC[C@H](C(=O)N1C[C@@H](Oc2ccc3oc4ccccc4c3c2)C[C@H]1C(=O)O)n1cnc(NC(=O)c2ccccc2S(=O)(=O)O)c1` [Example 71], the antagonist dissociation constant (Kb) was 25.1 nM.

`CCCCCC[C@H](C(=O)N1C[C@@H](Oc2ccc3sccc3c2)C[C@H]1C(=O)O)n1cnc(NC(=O)c2ccccc2S(=O)(=O)O)c1` [Example 72]: the antagonist equilibrium constant (Kb) is 3.16 nM.

As to `CCCCCC[C@H](C(=O)N1C[C@@H](Oc2cccnc2)C[C@H]1C(=O)O)n1cnc(NC(=O)c2ccccc2S(=O)(=O)O)c1` [Example 73], the antagonist dissociation constant (Kb) was 158 nM.

`CCCCCC[C@H](C(=O)N1C[C@@H](Oc2ccon2)C[C@H]1C(=O)O)n1cnc(NC(=O)c2ccccc2S(=O)(=O)O)c1` [Example 74]: the Kb was 100 nM.

On to `CCCCCC[C@H](C(=O)N1C[C@@H](Oc2ccc(OC)cc2)C[C@H]1C(=O)O)n1cnc(NC(=O)c2ccccc2-c2nn[nH]n2)c1` [Example 75], for which the antagonist dissociation constant (Kb) is 1 nM.

For the compound `CCCCCC[C@H](C(=O)N1C[C@@H](Oc2ccc(OC(C)(C)C)cc2)C[C@H]1C(=O)O)n1cnc(NC(=O)c2ccccc2-c2nn[nH]n2)c1` [Example 76], the Kb was 31.6 nM.

Consider `CCCCCC[C@H](C(=O)N1C[C@@H](Oc2ccc(CC(=O)O)cc2)C[C@H]1C(=O)O)n1cnc(NC(=O)c2ccccc2-c2nn[nH]n2)c1` [Example 77], for which the antagonist equilibrium constant (Kb) is 1.58 nM.

Take `CCCCCC[C@H](C(=O)N1C[C@@H](Oc2ccc(C(=O)O)cc2)C[C@H]1C(=O)O)n1cnc(NC(=O)c2ccccc2-c2nn[nH]n2)c1` [Example 78]: the antagonist equilibrium constant (Kb) was 3.16 nM.

Turning to `CCCCCC[C@H](C(=O)N1C[C@@H](Oc2ccc(OCC(=O)O)cc2)C[C@H]1C(=O)O)n1cnc(NC(=O)c2ccccc2-c2nn[nH]n2)c1` [Example 79], the antagonist dissociation constant (Kb) is 0.501 nM.

For the compound `CCCCCC[C@H](C(=O)N1C[C@@H](Oc2ccc(O)cc2)C[C@H]1C(=O)O)n1cnc(NC(=O)c2cccc(O)c2C(=O)O)c1` [Example 81], the Kb was 1.58 nM.

For the compound `CCCCCC[C@H](C(=O)N1C[C@@H](Oc2ccc(OC)cc2)C[C@H]1C(=O)O)n1cnc(NC(=O)c2cccc(O)c2C(=O)O)c1` [Example 82], the antagonist equilibrium constant (Kb) was 0.316 nM.

Regarding `CCCCCC[C@H](C(=O)N1C[C@@H](Oc2ccc(OCC)cc2)C[C@H]1C(=O)O)n1cnc(NC(=O)c2cccc(O)c2C(=O)O)c1` [Example 83], the “Rabbit Aorta (pA2)” value was 8.9.

Consider `CCCCCC[C@H](C(=O)N1C[C@@H](Oc2ccc(OCCCC)cc2)C[C@H]1C(=O)O)n1cnc(NC(=O)c2cccc(O)c2C(=O)O)c1` [Example 84], for which the antagonist dissociation constant (Kb) was 10 nM.

As for `CCCCCC[C@H](C(=O)N1C[C@@H](Oc2ccc(C(=O)O)cc2)C[C@H]1C(=O)O)n1cnc(NC(=O)c2cccc(O)c2C(=O)O)c1` [Example 85], the Kb was 1.26 nM.

With `CCCCCC[C@H](C(=O)N1C[C@@H](Oc2ccc(CC(=O)O)cc2)C[C@H]1C(=O)O)n1cnc(NC(=O)c2cccc(O)c2C(=O)O)c1` [Example 86], the Kb was 0.794 nM.

For the compound `CCCCCC[C@H](C(=O)N1C[C@@H](Oc2ccc(C#N)cc2)C[C@H]1C(=O)O)n1cnc(NC(=O)c2cccc(O)c2C(=O)O)c1` [Example 87], the antagonist equilibrium constant (Kb) was 31.6 nM.

`CCCCCC[C@H](C(=O)N1C[C@@H](Oc2ccc3c(c2)CCC3)C[C@H]1C(=O)O)n1cnc(NC(=O)c2cccc(O)c2C(=O)O)c1` [Example 88]: the Kb is 6.31 nM.

With `CCCCCC[C@H](C(=O)N1C[C@@H](Oc2ccc3ccccc3c2)C[C@H]1C(=O)O)n1cnc(NC(=O)c2cccc(O)c2C(=O)O)c1` [Example 89], the antagonist dissociation constant (Kb) was 31.6 nM.

In the case of `CCCCCC[C@H](C(=O)N1C[C@@H](Oc2ccc(OC)c(OC)c2)C[C@H]1C(=O)O)n1cnc(NC(=O)c2cccc(O)c2C(=O)O)c1` [Example 90], the antagonist dissociation constant (Kb) was 20 nM.

Take `CCCCCCC(C(=O)N1C[C@@H](Oc2ccc(CP(=O)(O)O)cc2)C[C@H]1C(=O)O)n1cnc(NC(=O)c2ccccc2S(=O)(=O)O)c1` (stereo partly shown) [Example 91]: the “Rabbit Aorta (pA2)” value was 10.1.

Consider `CCCCCC[C@H](C(=O)N1C[C@@H](Oc2ccc(NS(C)(=O)=O)cc2)C[C@H]1C(=O)O)n1cnc(NC(=O)c2ccccc2S(=O)(=O)O)c1` [Example 92, 1-[1-oxo-2-[4-(2-sulfobenzoyl)amino-1H-imidazol-1-yl]octyl]-4-cis-[(4-N-methanesulfonamido)-phenoxy]-L-proline], for which the antagonist equilibrium constant (Kb) is 0.126 nM.

One may read the Kb as the affinity of an antagonist, worked out from how it opposes an agonist.

For the origin of these results see patent US5484780A, “Angiotensin II antagonists” (Eli Lilly and Company, priority 1994, dated 1996).
